Assay results taken from ChEMBL document CHEMBL3817779, “Identification of novel 2-aminothiazole conjugated nitrofuran as antitubercular and antibacterial agents” (Bioorg Med Chem Lett, 2016).
Converted amounts (≈) assume the structure as drawn.

Legend:
[1] = test system: Mycobacterium tuberculosis; type: functional; conditions: H37Ra ATCC 25177
[2] = test system: Mycobacterium tuberculosis; type: functional; conditions: H37Ra ATCC 25177; remark: listed apart in the source
Vero = experiment: Cytotoxicity against African green monkey Vero cells assessed as reduction in cell viability after 72 hrs by MTT assay; type: cell-based; conditions: Chlorocebus sabaeus
[3] = test system: Mycobacterium tuberculosis; experiment: Antitubercular activity against Mycobacterium tuberculosis H37Rv assessed as inhibition of visible growth after 7 days by microbroth dilution method; type: functional; conditions: 168 h
Staphylococcus aureus [4] = experiment: Antibacterial activity against Staphylococcus aureus ATCC 6538; type: functional
[5] = Aqueous solubility in water at room temperature sonicated for 30 mins followed by overnight incubation by HPLC analysis; type: physicochemical
[6] = test system: Mycobacterium tuberculosis; experiment: microbe, parasite or virus in culture; conditions: H37Ra ATCC 25177
Description: Antitubercular activity against Mycobacterium tuberculosis H37Ra ATCC 25177

Staphylococcus aureus [7] = experiment: Antibacterial activity against Staphylococcus aureus ATCC 6538 at 20 uM relative to control; type: functional
[8] = test system: Mycobacterium tuberculosis; type: functional; conditions: H37Ra ATCC 25177; remark: listed apart in the source

| SMILES | inhibition at 10 µM [1] [%] | inhibition at 1 µM [2] [%] | IC50 (Vero) [µM] | MIC [3] [µg/mL] | MIC (Staphylococcus aureus [4]) [µg/mL] | solubility at 0.5 h [5] [µg/mL] | MIC90 [6] [µg/mL] | inhibition at 20 µM (Staphylococcus aureus [7]) [%] | inhibition at 20 µM [8] [%] |
| --- | --- | --- | --- | --- | --- | --- | --- | --- | --- |
| O=C(Nc1nc(-c2c(F)cc(F)cc2F)cs1)c1ccc([N+](=O)[O-])o1 | -10.1 | -4.1 | 19.9 |  |  |  |  |  |  |
| COc1ccc(-c2csc(NC(=O)c3ccc([N+](=O)[O-])o3)n2)cc1 | 99.3 | -8.3 | 63 |  |  |  |  |  |  |
| O=[N+]([O-])c1ccc(C2=NOC(c3ccc(N4CCC(Oc5ccc(OC(F)(F)F)cc5)CC4)cc3)C2)o1 (stereo unspecified) |  |  |  | 0.024 (≈ 0.0464 µM) |  |  |  |  |  |
| O=C(Nc1nc(-c2cccc(NS(=O)(=O)Cc3ccccc3)c2)cs1)c1ccc([N+](=O)[O-])o1 |  | 93.9 | 59.3 |  | 1.52 (≈ 3.14 µM) | 0.48 (≈ 0.991 µM) | 0.61 (≈ 1.26 µM) |  |  |
| COc1ccc(C(=O)Nc2cccc(-c3csc(NC(=O)c4ccc([N+](=O)[O-])o4)n3)c2)cc1 |  | -2.7 |  |  |  |  |  |  |  |
| O=C(Nc1nc(-c2cccc(Cl)c2)cs1)c1ccc([N+](=O)[O-])o1 | 99.2 | 40.5 | 43.7 |  |  |  |  |  |  |
| O=C(Nc1nc(-c2cccc(NC(=O)C3CCCC3)c2)cs1)c1ccc([N+](=O)[O-])o1 |  | 0.2 |  |  |  |  |  |  |  |
| Cc1cc(C)c(-c2csc(NC(=O)c3ccc([N+](=O)[O-])o3)n2)c(C)c1 | -4.3 | 0.9 | 30.4 |  |  |  |  |  |  |
| CS(=O)(=O)Nc1cccc(-c2csc(NC(=O)c3ccc([N+](=O)[O-])o3)n2)c1 | 82.1 | -4.1 | < 2.81 |  |  |  |  |  |  |
| O=C(Nc1nc(-c2cccc(NC(=O)C3CC3)c2)cs1)c1ccc([N+](=O)[O-])o1 | 99.6 | 99.3 | 35.7 |  | 2.49 (≈ 6.25 µM) | 0.47 (≈ 1.18 µM) | 0.5 (≈ 1.26 µM) |  |  |
| CC(C)(C)OC(=O)Nc1cccc(-c2csc(NC(=O)c3ccc([N+](=O)[O-])o3)n2)c1 |  | 40 |  |  |  |  |  |  |  |
| O=C(Nc1cccc(-c2csc(NC(=O)c3ccc([N+](=O)[O-])o3)n2)c1)c1ccccc1 | 99.5 | 98.9 | 50.2 |  | 1.36 (≈ 3.13 µM) | 1.27 (≈ 2.92 µM) | 0.27 (≈ 0.621 µM) |  |  |
| COc1cccc(-c2csc(NC(=O)c3ccc([N+](=O)[O-])o3)n2)c1 | 100 | 68.8 | 58.7 |  |  |  |  | 99.5 | 99.5 |
| CCOc1cccc(-c2csc(NC(=O)c3ccc([N+](=O)[O-])o3)n2)c1 | 99.4 | 95.7 | > 90 |  | 4.49 (≈ 12.5 µM) | 0.34 (≈ 0.946 µM) | 0.9 (≈ 2.5 µM) |  |  |
| COc1cccc(-c2csc(NC(=O)c3ccc(N)o3)n2)c1 |  | 5.2 |  |  |  |  |  |  |  |
| Nc1cccc(-c2csc(NC(=O)c3ccc([N+](=O)[O-])o3)n2)c1 |  | -1.1 |  |  |  |  |  |  |  |

| SMILES | inhibition at 10 µM [1] [%] | inhibition at 1 µM [2] [%] | IC50 (Vero) [µM] | MIC [3] [µg/mL] | MIC (Staphylococcus aureus [4]) [µg/mL] | solubility at 0.5 h [5] [µg/mL] | MIC90 [6] [µg/mL] | inhibition at 20 µM (Staphylococcus aureus [7]) [%] | inhibition at 20 µM [8] [%] |
| --- | --- | --- | --- | --- | --- | --- | --- | --- | --- |
| COc1ccccc1-c1csc(NC(=O)c2ccc([N+](=O)[O-])o2)n1 | 99.5 | -3 | 42 |  |  |  |  |  |  |
| O=C(Nc1nc(-c2cccc(Br)c2)cs1)c1ccc([N+](=O)[O-])o1 | 98.9 | 70.4 | 71 |  |  |  |  |  |  |
| COc1cccc(-c2csc(NC(=O)c3ccc([N+](=O)[O-])cc3)n2)c1 | -1.5 | -0.4 | > 90 |  |  |  |  |  |  |
| CC(C)Oc1cccc(-c2csc(NC(=O)c3ccc([N+](=O)[O-])o3)n2)c1 | 99.2 | 97.8 | 69.5 |  | 4.67 (≈ 12.5 µM) | 0.27 (≈ 0.723 µM) | 0.47 (≈ 1.26 µM) |  |  |
| O=C(Nc1nc(-c2cccc(NC(=O)C3CCC3)c2)cs1)c1ccc([N+](=O)[O-])o1 |  | 1.9 |  |  |  |  |  |  |  |
| O=C(Nc1nc(-c2ccccc2)cs1)c1ccc([N+](=O)[O-])o1 | 99.5 | 37.2 | 41.7 |  |  |  |  |  |  |
| CC(=O)Nc1cccc(-c2csc(NC(=O)c3ccc([N+](=O)[O-])o3)n2)c1 | 99.4 | 40.6 | 57.6 |  |  |  |  |  |  |
| O=C(Nc1nc(-c2cccc(NC(=O)C3CCCCC3)c2)cs1)c1ccc([N+](=O)[O-])o1 | 99.1 | 98.9 | 21.9 |  | 2.75 (≈ 6.24 µM) | 3.46 (≈ 7.86 µM) | 0.28 (≈ 0.636 µM) |  |  |
| O=C(Nc1cccc(-c2csc(NC(=O)c3ccc([N+](=O)[O-])o3)n2)c1)c1cccc(C(F)(F)F)c1 |  | 13.7 |  |  |  |  |  |  |  |
| O=C(Nc1nc(-c2cccc(C(F)(F)F)c2)cs1)c1ccc([N+](=O)[O-])o1 | 98.6 | 67 | 23.9 |  |  |  |  |  |  |
| O=C(Nc1cccc(-c2csc(NC(=O)c3ccc([N+](=O)[O-])o3)n2)c1)c1ccc(F)cc1 |  | 39.8 |  |  |  |  |  |  |  |
| O=C(Nc1nc(-c2cccc(OC3CCCC3)c2)cs1)c1ccc([N+](=O)[O-])o1 | 99.3 | 97.9 | 81.1 |  | 4.99 (≈ 12.5 µM) | 0.027 (≈ 0.0676 µM) | 1 (≈ 2.5 µM) |  |  |
| O=C(Nc1nc(-c2cccc(F)c2)cs1)c1ccc([N+](=O)[O-])o1 | 99.6 | 95.7 | 51.6 |  | 4.17 (≈ 12.5 µM) | 14.8 (≈ 44.5 µM) | 0.83 (≈ 2.49 µM) |  |  |
| COc1cccc(-c2csc(NC(=O)c3ccco3)n2)c1 | -0.9 | 1.9 | > 90 |  |  |  |  |  |  |
| O=C(O)c1cn(C2CC2)c2cc(N3CCNCC3)c(F)cc2c1=O [CIPROFLOXACIN] | 99.7 | 99.6 |  |  | 0.26 (≈ 0.785 µM) |  | 1.04 (≈ 3.14 µM) |  |  |
